In US20260001875A1, “AMINOPYRIMIDINYL DERIVATIVES FOR THE TREATMENT OF PARKINSON'S DISEASE” (UNIVERSITY OF DUNDEE, priority 2022, published 2026):

What was measured:
[1] = test system: Rab10 pThr73; assay: Rab10 Thr73 dephosphorylation in LRRK2^R1441C MEFs; type: cell-based; conditions: Mus musculus; dose response, 4 h treatment
Description: Primary MEFs were generated as described in a previous study (Wiggin et al., Mol. Cell Biol. 2002 April; 22(8):2871-81.). Briefly, the uterine horn was collected from adult female mice at day E12.5 and transferred to a 10 cm tissue culture dish containing cold PBS. Two forceps were used to tear the yolk sacs to isolate each embryo. Forceps were cleaned thoroughly with 70% ethanol between each embryo isolation. The embryos were culled, and a tissue piece was collected in a PCR tube for genotyping. The red tissue of the embryo, which grows to become the heart and liver, was removed. The remainder of the embryo was minced with a scalpel blade and incubated with 7.5 ml trypsin-EDTA solution for 10 minutes in a 37° C. tissue culture CO2 incubator. The dish was removed from the incubator and checked under a light microscope for single cells. 7.5 ml complete media was added to the trypsinised cells, and the cell suspension was transferred to a 15 ml Falcon tube, centrifuged at 1200 rpm for 5 minutes at room temperature. […]
(§1) Culturing and passaging of adherent cell lines were carried out using aseptic technique in CL1 or CL2 (for PBMC isolation) biological safety cabinets. […] The cell pellet was discarded, and supernatant was collected for analysis by quantitative immunoblotting. […] Protein concentrations of cell lysates were determined using the Bradford assay. […]

[2] = biological target: LRRK2 (Mus musculus, UniProt Q5S006); assay: LRRK2 degradation in bone marrow-derived macrophages; type: cell-based
LRRK2, sequence (Q5S006 whole entry): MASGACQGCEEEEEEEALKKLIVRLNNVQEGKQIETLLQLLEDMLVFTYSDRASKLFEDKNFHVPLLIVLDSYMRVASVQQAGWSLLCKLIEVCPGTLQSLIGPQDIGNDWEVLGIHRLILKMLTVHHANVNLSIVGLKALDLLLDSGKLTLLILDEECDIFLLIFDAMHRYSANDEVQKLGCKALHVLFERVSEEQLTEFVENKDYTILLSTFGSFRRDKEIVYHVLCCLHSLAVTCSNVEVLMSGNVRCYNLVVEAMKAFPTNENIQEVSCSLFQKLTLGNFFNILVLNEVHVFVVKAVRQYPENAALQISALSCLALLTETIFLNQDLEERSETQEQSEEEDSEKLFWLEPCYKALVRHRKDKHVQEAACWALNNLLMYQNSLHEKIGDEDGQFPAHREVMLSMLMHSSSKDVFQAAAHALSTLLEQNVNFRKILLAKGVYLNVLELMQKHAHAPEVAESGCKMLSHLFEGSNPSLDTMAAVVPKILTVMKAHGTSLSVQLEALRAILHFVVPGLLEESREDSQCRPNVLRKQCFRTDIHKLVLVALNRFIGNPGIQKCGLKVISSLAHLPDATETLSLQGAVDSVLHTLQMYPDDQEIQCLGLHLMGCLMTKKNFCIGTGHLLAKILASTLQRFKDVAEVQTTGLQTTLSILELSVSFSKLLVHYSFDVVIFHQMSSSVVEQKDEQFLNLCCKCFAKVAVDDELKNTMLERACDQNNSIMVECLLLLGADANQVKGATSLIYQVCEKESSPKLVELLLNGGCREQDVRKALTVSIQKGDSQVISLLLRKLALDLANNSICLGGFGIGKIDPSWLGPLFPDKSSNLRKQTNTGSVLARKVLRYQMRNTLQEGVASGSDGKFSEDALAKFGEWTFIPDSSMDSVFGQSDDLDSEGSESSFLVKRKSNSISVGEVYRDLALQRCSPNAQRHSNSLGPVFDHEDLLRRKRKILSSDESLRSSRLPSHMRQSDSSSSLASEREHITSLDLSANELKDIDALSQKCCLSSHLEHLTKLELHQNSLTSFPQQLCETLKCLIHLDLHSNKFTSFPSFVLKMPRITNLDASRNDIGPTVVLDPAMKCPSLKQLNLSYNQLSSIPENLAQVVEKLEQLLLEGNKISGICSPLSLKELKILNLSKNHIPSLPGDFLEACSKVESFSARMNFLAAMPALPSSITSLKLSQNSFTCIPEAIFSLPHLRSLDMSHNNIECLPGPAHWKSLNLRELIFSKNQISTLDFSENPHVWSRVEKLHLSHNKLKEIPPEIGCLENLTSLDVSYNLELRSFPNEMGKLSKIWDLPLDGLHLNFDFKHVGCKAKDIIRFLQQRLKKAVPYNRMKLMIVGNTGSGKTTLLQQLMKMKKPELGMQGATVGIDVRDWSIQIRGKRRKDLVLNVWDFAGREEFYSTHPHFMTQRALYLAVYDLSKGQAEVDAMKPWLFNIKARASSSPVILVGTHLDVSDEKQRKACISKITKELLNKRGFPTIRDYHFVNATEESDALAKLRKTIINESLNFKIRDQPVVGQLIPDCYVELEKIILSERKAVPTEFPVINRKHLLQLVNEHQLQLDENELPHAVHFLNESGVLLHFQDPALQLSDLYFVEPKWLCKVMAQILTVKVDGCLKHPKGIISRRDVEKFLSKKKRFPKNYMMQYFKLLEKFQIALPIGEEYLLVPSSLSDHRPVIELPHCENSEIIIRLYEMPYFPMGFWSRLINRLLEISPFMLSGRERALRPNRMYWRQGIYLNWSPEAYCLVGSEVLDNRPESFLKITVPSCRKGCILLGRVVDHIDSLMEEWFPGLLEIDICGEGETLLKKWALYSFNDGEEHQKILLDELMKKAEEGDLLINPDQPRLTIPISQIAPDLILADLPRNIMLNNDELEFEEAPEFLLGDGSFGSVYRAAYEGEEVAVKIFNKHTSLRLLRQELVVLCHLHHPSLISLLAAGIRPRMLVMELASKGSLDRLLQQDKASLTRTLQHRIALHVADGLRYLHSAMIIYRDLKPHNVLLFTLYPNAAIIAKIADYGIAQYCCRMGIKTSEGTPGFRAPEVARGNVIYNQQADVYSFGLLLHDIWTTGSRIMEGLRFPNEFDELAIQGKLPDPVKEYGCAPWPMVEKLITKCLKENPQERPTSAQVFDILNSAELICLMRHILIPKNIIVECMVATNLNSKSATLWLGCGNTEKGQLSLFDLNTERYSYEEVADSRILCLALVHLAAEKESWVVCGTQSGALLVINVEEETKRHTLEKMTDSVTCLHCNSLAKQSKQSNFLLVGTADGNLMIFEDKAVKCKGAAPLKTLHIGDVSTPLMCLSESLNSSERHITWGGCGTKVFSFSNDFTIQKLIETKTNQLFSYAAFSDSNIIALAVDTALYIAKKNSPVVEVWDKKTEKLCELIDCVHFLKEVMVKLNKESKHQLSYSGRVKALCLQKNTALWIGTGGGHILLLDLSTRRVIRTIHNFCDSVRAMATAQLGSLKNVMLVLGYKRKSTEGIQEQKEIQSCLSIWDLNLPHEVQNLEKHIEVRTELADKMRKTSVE
Description: Bone marrow isolation and macrophage differentiation was modified from (Wells et al., 2004), employing L929 preconditioned medium as the source of M-CSF for differentiation. Briefly, scissors and forceps were used to dissect femurs and tibiae from adult mice, and muscle tissue was carefully removed from bones. Clean femurs and tibiae were placed in a tissue culture dish containing complete media. The ends of each bone were cut with scissors to expose bone marrow. Bone marrow was flushed with a 25-gauge needle attached to a 10 ml syringe containing complete media. Media containing bone marrow was passed through a 70 μm cell strainer and precursor cells were plated on non-tissue culture treated 10 cm bacteriological plates containing 10 ml complete media. This was marked as day 0 of isolation. On day three post-isolation, macrophages were topped up with 5 ml fresh complete media. On day seven post-isolation, macrophages were rinsed once with PBS and incubated with Versene for 5 minutes in a 37° C. 5% CO2 tissue culture incubator. Macrophages were detached with cell scrapers and were centrifuged at 1200 rpm for 5 minutes at room temperature. The Versene was aspirated and the remaining cell pellet was resuspended in complete media. The cell suspension was counted, and cells were seeded for experimental analysis in a 6-well format, in tissue culture treated dishes at a final cell density of one million cells per 6-well.
as §1, with “cabinets. All cells were incubated in a 37° C. incubator with 5% CO2. Cell lines were regularly tested for mycoplasma contamination. For western blot assay, the cells were seeded in 6-well plates.” for “cabinets.”

Row | LRRK2 degradation in macrophages (in words) [2] | Compound | EC50 [1] | LRRK2 protein level reduced in macrophages [2] | DC50 ([2]; dose response)
1 | cannot degrade LRRK2 | CNc1nc(Nc2ccc(C(=O)N3CCN(C[C@H]4CC[C@H](CSC(C)(C)[C@H](NC(=O)C5(F)CC5)C(=O)N5C[C@@H](O)CC5C(=O)NCc5ccc(-c6scnc6C)cc5)CC4)CC3)cc2OC)ncc1Cl (stereo partly drawn) [Cis-XL01126, (2S,4S)-1-((R)-3-((((1r,4R)-4-((4-(4-((5-chloro-4-(methylamino)pyrimidin-2-yl)amino)-3-methoxybenzoyl)piperazin-1-yl)methyl)cyclohexyl)methyl)thio)-2-(1-fluorocyclopropane-1-carboxamido)-3-methylbutanoyl)-4-hydroxy-N-(4-(4-methylthiazol-5-yl)benzyl)pyrrolidine-2-carboxamide] | 158 nM | – | –
2 | – | CNc1nc(Nc2ccc(C(=O)N3CCN(C[C@H]4CC[C@H](CSC(C)(C)[C@H](NC(=O)C5(F)CC5)C(=O)N5C[C@H](O)CC5C(=O)NCc5ccc(-c6scnc6C)cc5)CC4)CC3)cc2OC)ncc1Cl (stereo partly drawn) [XL01126, (2S,4R)-1-((R)-3-((((1R,4R)-4-((4-(4-((5-chloro-4-(methylamino)pyrimidin-2-yl)amino)-3-methoxybenzoyl)piperazin-1-yl)methyl)cyclohexyl)methyl)thio)-2-(1-fluorocyclopropane-1-carboxamido)-3-methylbutanoyl)-4-hydroxy-N-(4-(4-methylthiazol-5-yl)benzyl)pyrrolidine-2-carboxamide] | 30 nM | 80-90% | 55 nM
